Laboratory results taken from patent publication US4005194A, “Treatment of prostatic hyperplasia” (Abbott Laboratories, priority 1975, dated 1977).

Key:
[1] = system: Sprague Dawley male rat; conditions: in vivo
Procedure: Ten Sprague Dawley male rat 22 days of age and weighing 45-50 grams, were randomly divided into two groups. One group received the treatment described below. After 57 days of treatment, the animals from the non-treatment control group and those from the treatment group were sacrificed. The various organs were removed, trimmed of excess tissue and weighed. Body weights were taken weekly. Group I received no treatment; Group II received 10 μg of Compound N twice each day. The results are shown in Table I with each entry showing the mean value of the respective group.

[2] = system: Male rats; conditions: rat, in vivo
Procedure: In an experiment similar to that of Example 5 with Groups I and III being treated as shown, but Group II being treated like Group III except with only 1 μg of Compound N, the test was continued for 51 days, starting with 22-day old male rats, 5 animals per group. The animals were sacrificed on day 52. […] Another three groups of 5 male rats were treated in the identical fashion, but the treatment was extended from the age of 22 days to day 138 (116 days).

[3] = system: Male rats; conditions: rat, in vivo; remark: listed apart in the source
Procedure: Male rats, 22 days of age, were divided into 3 groups of five animals each. The 3 groups were treated exactly as described in Example 3, but the experiment was continued for 153 days. After 115 days, these animals were bred to untreated, cycling females (each male was caged with 2 cycling females in pro-estrus for 3 consecutive days, on 3-5 separate occasions).

SMILES: CCNC(=O)[C@@H]1CCCN1C(=O)[C@H](CCCNC(=N)N)NC(=O)[C@H](CC(C)C)NC(=O)[C@@H](CC(C)C)NC(=O)[C@H](Cc1ccc(O)cc1)NC(=O)[C@H](CO)NC(=O)[C@H](Cc1c[nH]c2ccccc12)NC(=O)[C@H](Cc1c[nH]cn1)NC(=O)[C@@H]1CCC(=O)N1 [Compound N]
- Effect on normal weight gain and growth [1]: essentially no effect
- Outward signs or organic changes over the control group [2]: None of the treated animals in this experiment showed any outward signs or organic changes
- Breeding index (percentage of successful impregnations vs. opportunities to breed) [3]: 23%
- Course of resulting pregnancies [3]: progressed normal
- Number of pups [3]: 10.4
- Weight of pups on day 1 [3]: 6.9 g
- Weight of pups on day 4 [3]: 11.7 g
- Weight of pups on day 11 [3]: 23.5 g
- Weight of pups on day 21 [3]: 44.3 g
